SMILES strings stand for the structures.

From patent US9175003B2, “Substituted azoanthracene derivatives and intermediates for preparation thereof” (TransTech Pharma, LLC, priority 2009, dated 2015) come the findings set out here.

The target of this test is human GLP-1 receptor (Homo sapiens (Human), UniProt P43220). The following applies: read-out: Mean EC50; cAMP, HTRF detection, 30 min at 37° C., HEK-293 cells expressing cloned human GLP-1 receptor.
Chain of human GLP-1 receptor (P43220 24-463): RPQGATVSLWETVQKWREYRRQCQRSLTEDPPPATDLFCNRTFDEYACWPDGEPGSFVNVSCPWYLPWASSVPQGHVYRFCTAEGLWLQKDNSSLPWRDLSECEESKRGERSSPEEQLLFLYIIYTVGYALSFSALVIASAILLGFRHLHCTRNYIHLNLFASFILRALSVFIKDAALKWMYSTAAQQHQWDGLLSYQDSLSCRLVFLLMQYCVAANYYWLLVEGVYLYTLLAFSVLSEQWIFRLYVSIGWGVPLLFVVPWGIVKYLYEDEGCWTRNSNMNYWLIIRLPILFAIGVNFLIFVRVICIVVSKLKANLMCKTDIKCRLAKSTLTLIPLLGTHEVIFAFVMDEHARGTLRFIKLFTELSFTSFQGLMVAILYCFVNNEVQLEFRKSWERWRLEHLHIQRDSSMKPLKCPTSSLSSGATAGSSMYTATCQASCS

With `Cc1nc(C)c(S(=O)(=O)N2Cc3cc4c(cc3C[C@H]2C(=O)N[C@@H](Cc2ccc(-c3ccc(C#N)cc3)cc2)C(=O)O)OCC(c2ccc(OCc3ccc(Cl)c(Cl)c3)cc2)O4)s1` (stereo in doubt) [Example 130, (S)-3-(4′-Cyano-biphenyl-4-yl)-2-{[(S)-3-[4-(3,4-dichloro-benzyloxy)-phenyl]-7-(2,4-dimethyl-thiazole-5-sulfonyl)-2,3,6,7,8,9-hexahydro-[1,4]dioxino[2,3-g]isoquinoline-8-carbonyl]-amino}-propionic acid], the half-maximal effective concentration (EC50) worked out at 111 nM.

For the compound `Cc1nc(N2CCOCC2)ccc1S(=O)(=O)N1Cc2cc3c(cc2C[C@H]1C(=O)N[C@@H](Cc1ccc(-c2ccc(C#N)cc2)cc1)C(=O)O)OCC(c1ccc(OCc2ccc(Cl)c(Cl)c2)cc1)O3` (stereo in doubt) [Example 133, (S)-3-(4′-Cyano-biphenyl-4-yl)-2-{[(S)-3-[4-(3,4-dichloro-benzyloxy)-phenyl]-7-(2-methyl-6-morpholin-4-yl-pyridine-3-sulfonyl)-2,3,6,7,8,9-hexahydro-[1,4]dioxino[2,3-g]isoquinoline-8-carbonyl]-amino}-propionic acid], the EC50 turned out to be 54 nM.

Consider `CCNc1ccc(S(=O)(=O)N2Cc3cc4c(cc3C[C@H]2C(=O)N[C@@H](Cc2ccc(-c3ccc(C#N)cc3)cc2)C(=O)O)OCC(c2ccc(OCc3ccc(Cl)c(Cl)c3)cc2)O4)c(C)n1` (stereo in doubt) [Example 135, (S)-3-(4′-Cyano-biphenyl-4-yl)-2-{[(S)-3-[4-(3,4-dichloro-benzyloxy)-phenyl]-7-(6-ethylamino-2-methyl-pyridine-3-sulfonyl)-2,3,6,7,8,9-hexahydro-[1,4]dioxino[2,3-g]isoquinoline-8-carbonyl]-amino}-propionic acid], for which the 50% effective concentration (EC50) was found to be 284 nM. Turning to `COCCNc1ccc(S(=O)(=O)N2Cc3cc4c(cc3C[C@H]2C(=O)N[C@@H](Cc2ccc(-c3ccc(C#N)cc3)cc2)C(=O)O)OCC(c2ccc(OCc3ccc(Cl)c(Cl)c3)cc2)O4)c(C)n1` (stereo in doubt) [Example 136, (S)-3-(4′-Cyano-biphenyl-4-yl)-2-({(S)-3-[4-(3,4-dichloro-benzyloxy)-phenyl]-7-[6-(2-methoxy-ethylamino)-2-methyl-pyridine-3-sulfonyl]-2,3,6,7,8,9-hexahydro-[1,4]dioxino[2,3-g]isoquinoline-8-carbonyl}-amino)-propionic acid], the EC50 worked out at 50 nM.

On to `CC(=O)Nc1nc(-c2ccc(S(=O)(=O)N3Cc4cc5c(cc4C[C@H]3C(=O)N[C@@H](Cc3ccc(-c4ccc(C#N)cc4)cc3)C(=O)O)OCC(c3ccc(OCc4ccc(Cl)c(Cl)c4)cc3)O5)cc2)cs1` (stereo in doubt) [Example 138, (S)-2-({(S)-7-[4-(2-Acetylamino-thiazol-4-yl)-benzenesulfonyl]-3-[4-(3,4-dichloro-benzyloxy)-phenyl]-2,3,6,7,8,9-hexahydro-[1,4]dioxino[2,3-g]isoquinoline-8-carbonyl}-amino)-3-(4′-cyano-biphenyl-4-yl)-propionic acid], for which the half-maximal effective concentration (EC50) stood at 241 nM. Regarding `N#Cc1ccc(-c2ccc(C[C@H](NC(=O)[C@@H]3Cc4cc5c(cc4CN3S(=O)(=O)c3ccc(-c4csc(N)n4)cc3)OC(c3ccc(OCc4ccc(Cl)c(Cl)c4)cc3)CO5)C(=O)O)cc2)cc1` (stereo in doubt) [Example 139, (S)-2-({(S)-7-[4-(2-Amino-thiazol-4-yl)-benzenesulfonyl]-3-[4-(3,4-dichloro-benzyloxy)-phenyl]-2,3,6,7,8,9-hexahydro-[1,4]dioxino[2,3-g]isoquinoline-8-carbonyl}-amino)-3-(4′-cyano-biphenyl-4-yl)-propionic acid], the EC50 was 85 nM. With `Cc1nc(N)sc1S(=O)(=O)N1Cc2cc3c(cc2C[C@H]1C(=O)N[C@@H](Cc1ccc(-c2ccc(C#N)cc2)cc1)C(=O)O)OC[C@@H](c1ccc(OCc2ccc(Cl)c(Cl)c2)cc1)O3` [Example 60, (S)-2-({(3R,8S)-7-(2-Amino-4-methyl-thiazole-5-sulfonyl)-3-[4-(3,4-dichloro-benzyloxy)-phenyl]-2,3,6,7,8,9-hexahydro-[1,4]dioxino[2,3-g]isoquinoline-8-carbonyl}-amino)-3-(4′-cyano-biphenyl-4-yl)-propionic acid], the EC50 came to 109 nM.

On to `CNc1nc(C)c(S(=O)(=O)N2Cc3cc4c(cc3C[C@H]2C(=O)N[C@@H](Cc2ccc(-c3ccc(C#N)cc3)cc2)C(=O)O)OC[C@@H](c2ccc(OCc3ccc(Cl)c(Cl)c3)cc2)O4)s1` [Example 61, (S)-3-(4′-Cyano-biphenyl-4-yl)-2-{[(3R,8S)-3-[4-(3,4-dichloro-benzyloxy)-phenyl]-7-(4-methyl-2-methylamino-thiazole-5-sulfonyl)-2,3,6,7,8,9-hexahydro-[1,4]dioxino[2,3-g]isoquinoline-8-carbonyl]-amino}-propionic acid], for which the EC50 worked out at 73 nM. The result for `CCNc1nc(C)c(S(=O)(=O)N2Cc3cc4c(cc3C[C@H]2C(=O)N[C@@H](Cc2ccc(-c3ccc(C#N)cc3)cc2)C(=O)O)OC[C@@H](c2ccc(OCc3ccc(Cl)c(Cl)c3)cc2)O4)s1` [Example 62, (S)-3-(4′-Cyano-biphenyl-4-yl)-2-{[(3R,8S)-3-[4-(3,4-dichloro-benzyloxy)-phenyl]-7-(2-ethylamino-4-methyl-thiazole-5-sulfonyl)-2,3,6,7,8,9-hexahydro-[1,4]dioxino[2,3-g]isoquinoline-8-carbonyl]-amino}-propionic acid] reads 328 nM.

Regarding `Cc1nc(NC(=O)[C@@H]2CCCN2)sc1S(=O)(=O)N1Cc2cc3c(cc2C[C@H]1C(=O)N[C@@H](Cc1ccc(-c2ccc(C#N)cc2)cc1)C(=O)O)OCC(c1ccc(OCc2ccc(Cl)c(Cl)c2)cc1)O3` (stereo partly drawn) [Example 71], the EC50 was 477 nM. `CC[C@@H](c1ccccc1)N1Cc2cc3c(cc2C[C@H]1C(=O)N[C@@H](Cc1ccc(-c2ccc(C#N)cc2)cc1)C(=O)O)OC[C@H](c1ccc(OCc2ccc(Cl)c(Cl)c2)cc1)O3` [Example 72, (S)-3-(4′-Cyano-biphenyl-4-yl)-2-{[(3S,8S)-3-[4-(3,4-dichloro-benzyloxy)-phenyl]-7-((S)-1-phenyl-propyl)-2,3,6,7,8,9-hexahydro-[1,4]dioxino[2,3-g]isoquinoline-8-carbonyl]-amino}-propionic acid]: the EC50 came to 480 nM. For `CC[C@@H](c1ccccc1)N1Cc2cc3c(cc2C[C@H]1C(=O)N[C@@H](Cc1ccc(-c2ccncc2)cc1)C(=O)O)OC[C@H](c1ccc(OCc2ccc(Cl)c(Cl)c2)cc1)O3` [Example 73, (S)-2-{[(3S,8S)-3-[4-(3,4-Dichloro-benzyloxy)-phenyl]-7-((S)-1-phenyl-propyl)-2,3,6,7,8,9-hexahydro-[1,4]dioxino[2,3-g]isoquinoline-8-carbonyl]-amino}-3-(4-pyridin-4-yl-phenyl)-propionic acid], the concentration giving a half-maximal response (EC50) is 76 nM. The result for `Cc1nc(N)sc1S(=O)(=O)N1Cc2cc3c(cc2C[C@H]1C(=O)N[C@@H](Cc1ccc(-c2ccc(C#N)cc2)cc1)C(=O)O)OC[C@H](c1ccc(OCc2ccc(Cl)c(Cl)c2)cc1)O3` [Example 81, (S)-2-({(3S,8S)-7-(2-Amino-4-methyl-thiazole-5-sulfonyl)-3-[4-(3,4-dichloro-benzyloxy)-phenyl]-2,3,6,7,8,9-hexahydro-[1,4]dioxino[2,3-g]isoquinoline-8-carbonyl}-amino)-3-(4′-cyano-biphenyl-4-yl)-propionic acid] reads 326 nM. On to `CNc1nc(C)c(S(=O)(=O)N2Cc3cc4c(cc3C[C@H]2C(=O)N[C@@H](Cc2ccc(-c3ccc(C#N)cc3)cc2)C(=O)O)OC[C@H](c2ccc(OCc3ccc(Cl)c(Cl)c3)cc2)O4)s1` [Example 85, (S)-3-(4′-Cyano-biphenyl-4-yl)-2-{[(3S,8S)-3-[4-(3,4-dichloro-benzyloxy)-phenyl]-7-(4-methyl-2-methylamino-thiazole-5-sulfonyl)-2,3,6,7,8,9-hexahydro-[1,4]dioxino[2,3-g]isoquinoline-8-carbonyl]-amino}-propionic acid], for which the 50% effective concentration (EC50) is 263 nM.

For `CCNc1nc(C)c(S(=O)(=O)N2Cc3cc4c(cc3C[C@H]2C(=O)N[C@@H](Cc2ccc(-c3ccc(C#N)cc3)cc2)C(=O)O)OC[C@H](c2ccc(OCc3ccc(Cl)c(Cl)c3)cc2)O4)s1` [Example 86, (S)-3-(4′-Cyano-biphenyl-4-yl)-2-{[(3S,8S)-3-[4-(3,4-dichloro-benzyloxy)-phenyl]-7-(2-ethylamino-4-methyl-thiazole-5-sulfonyl)-2,3,6,7,8,9-hexahydro-[1,4]dioxino[2,3-g]isoquinoline-8-carbonyl]-amino}-propionic acid], the concentration giving a half-maximal response (EC50) came out at 249 nM.

For the compound `COCCNc1nc(C)c(S(=O)(=O)N2Cc3cc4c(cc3C[C@H]2C(=O)N[C@@H](Cc2ccc(-c3ccc(C#N)cc3)cc2)C(=O)O)OC[C@H](c2ccc(OCc3ccc(Cl)c(Cl)c3)cc2)O4)s1` [Example 92, (S)-3-(4′-Cyano-biphenyl-4-yl)-2-({(3S,8S)-3-[4-(3,4-dichloro-benzyloxy)-phenyl]-7-[2-(2-methoxy-ethylamino)-4-methyl-thiazole-5-sulfonyl]-2,3,6,7,8,9-hexahydro-[1,4]dioxino[2,3-g]isoquinoline-8-carbonyl}-amino)-propionic acid], the EC50 amounted to 156 nM. Take `COc1cc(C)ccc1S(=O)(=O)N1Cc2cc3c(cc2C[C@H]1C(=O)N[C@@H](Cc1ccc(-c2ccc(C#N)cc2)cc1)C(=O)O)OC[C@H](c1ccc(OCc2ccc(Cl)c(Cl)c2)cc1)O3` [Example 98, (S)-3-(4′-Cyano-biphenyl-4-yl)-2-{[(3S,8S)-3-[4-(3,4-dichloro-benzyloxy)-phenyl]-7-(2-methoxy-4-methyl-benzenesulfonyl)-2,3,6,7,8,9-hexahydro-[1,4]dioxino[2,3-g]isoquinoline-8-carbonyl]-amino}-propionic acid]: the concentration giving a half-maximal response (EC50) came out at 377 nM.

Take `CCC(=O)Nc1nc(C)c(S(=O)(=O)N2Cc3cc4c(cc3C[C@H]2C(=O)N[C@@H](Cc2ccc(-c3ccc(C#N)cc3)cc2)C(=O)O)OCC(c2ccc(OCc3ccc(Cl)c(Cl)c3)cc2)O4)s1` (stereo partly drawn) [Example 132, (S)-3-(4′-Cyano-biphenyl-4-yl)-2-{[(S)-3-[4-(3,4-dichloro-benzyloxy)-phenyl]-7-(4-methyl-2-propionylamino-thiazole-5-sulfonyl)-2,3,6,7,8,9-hexahydro-[1,4]dioxino[2,3g]isoquinoline-8-carbonyl]-amino}-propionic acid]: the 50% effective concentration (EC50) turned out to be 214 nM.

The term EC50 denotes the concentration that produces a half-maximal response.
